Laboratory results: ChEMBL document CHEMBL3885881, “DrugMatrix”

Species on record: Rattus norvegicus
Test: DrugMatrix - Regimen: Daily Repeat
Format: toxicity, organism-based, Sprague-Dawley
Design: regimen Daily Repeat, gender Male, age 6-8 weeks
Conditions: in vivo, po, route oral GAVAGE, vehicle 100 % WATER; for ABSOLUTE BASOPHIL / ABSOLUTE EOSINOPHIL / ABSOLUTE LYMPHOCYTE / ABSOLUTE MONOCYTE / ABSOLUTE SEGMENTED NEUTROPHIL / BASOPHIL / EOSINOPHIL / ERYTHROCYTE COUNT / HEMATOCRIT / HEMOGLOBIN / LEUKOCYTE COUNT / LYMPHOCYTE / MEAN CORPUSCULAR HEMOGLOBIN / MEAN CORPUSCULAR HEMOGLOBIN CONCENTRATION / MEAN CORPUSCULAR VOLUME / MONOCYTE / NEUTROPHIL / NUCLEATED RED BLOOD CELLS / PLATELET COUNT: tissue Blood; for ALANINE AMINOTRANSFERASE / ALBUMIN / ALKALINE PHOSPHATASE / ASPARTATE AMINOTRANSFERASE / BLOOD UREA NITROGEN / CARBON DIOXIDE / CHLORIDE / CHOLESTEROL / CREATINE PHOSPHOKINASE / CREATININE / GLUCOSE / LACTATE DEHYDROGENASE / LIPASE / PHOSPHORUS / POTASSIUM / SODIUM / TOTAL BILIRUBIN / TOTAL PROTEIN / URIC ACID: tissue Plasma
[1] = 0 mg/kg, 72 h, dose level Control, time 3 day
[2] = 0 mg/kg, 120 h, dose level Control, time 5 day
[3] = 8 mg/kg, 72 h, dose level Low, time 3 day

CCN(C(C)=O)c1cccc(-c2ccnc3c(C#N)cnn23)c1 [ZALEPLON]
ABSOLUTE BASOPHIL [1]: 0 CELLS/uL | ABSOLUTE EOSINOPHIL [1]: 58.83 CELLS/uL | ABSOLUTE LYMPHOCYTE [1]: 11823.5 CELLS/uL | ABSOLUTE MONOCYTE [1]: 169 CELLS/uL | ABSOLUTE SEGMENTED NEUTROPHIL [1]: 815.33 CELLS/uL | BASOPHIL [1]: 0% | EOSINOPHIL [1]: 0.5% | ERYTHROCYTE COUNT [1]: 5.52 x10E6/uL | HEMATOCRIT [1]: 35.77% | HEMOGLOBIN [1]: 14.28 G/DL | LEUKOCYTE COUNT [1]: 12.87 x10E3/uL | LYMPHOCYTE [1]: 91.67% | MEAN CORPUSCULAR HEMOGLOBIN [1]: 25.92 pg | MEAN CORPUSCULAR HEMOGLOBIN CONCENTRATION [1]: 39.95 G/DL | MEAN CORPUSCULAR VOLUME [1]: 64.85 fL | MONOCYTE [1]: 1.33% | NEUTROPHIL [1]: 6.5% | NUCLEATED RED BLOOD CELLS [1]: 0 /100WBC | PLATELET COUNT [1]: 1246.17 x10E3/uL | ALANINE AMINOTRANSFERASE [1]: 66 u/L | ALBUMIN [1]: 4.25 G/DL | ALKALINE PHOSPHATASE [1]: 416 u/L | ASPARTATE AMINOTRANSFERASE [1]: 106.17 u/L | BLOOD UREA NITROGEN [1]: 12.67 mg/dL | CARBON DIOXIDE [1]: 31.83 mmol/L | CHLORIDE [1]: 102.5 MEQ/L | CHOLESTEROL [1]: 69 mg/dL | CREATINE PHOSPHOKINASE [1]: 601.83 u/L | CREATININE [1]: 0.18 mg/dL | GLUCOSE [1]: 154.5 mg/dL | LACTATE DEHYDROGENASE [1]: 301.83 u/L | LIPASE [1]: 11.17 u/L | PHOSPHORUS [1]: 12.08 mg/dL | POTASSIUM [1]: 6.12 MEQ/L | SODIUM [1]: 145.2 MEQ/L | TOTAL BILIRUBIN [1]: 0.17 mg/dL | TOTAL PROTEIN [1]: 6.1 G/DL | URIC ACID [1]: 1.57 mg/dL | ABSOLUTE BASOPHIL [2]: 0 CELLS/uL | ABSOLUTE EOSINOPHIL [2]: 19.33 CELLS/uL | ABSOLUTE LYMPHOCYTE [2]: 12577.83 CELLS/uL | ABSOLUTE MONOCYTE [2]: 106.33 CELLS/uL | ABSOLUTE SEGMENTED NEUTROPHIL [2]: 896.5 CELLS/uL | BASOPHIL [2]: 0% | EOSINOPHIL [2]: 0.17% | ERYTHROCYTE COUNT [2]: 5.84 x10E6/uL | HEMATOCRIT [2]: 36.88% | HEMOGLOBIN [2]: 14.48 G/DL | LEUKOCYTE COUNT [2]: 13.6 x10E3/uL | LYMPHOCYTE [2]: 92.17% | MEAN CORPUSCULAR HEMOGLOBIN [2]: 24.85 pg | MEAN CORPUSCULAR HEMOGLOBIN CONCENTRATION [2]: 39.3 G/DL | MEAN CORPUSCULAR VOLUME [2]: 63.23 fL | MONOCYTE [2]: 0.83% | NEUTROPHIL [2]: 6.83% | NUCLEATED RED BLOOD CELLS [2]: 0 /100WBC | PLATELET COUNT [2]: 1223.5 x10E3/uL | ALANINE AMINOTRANSFERASE [2]: 55.33 u/L | ALBUMIN [2]: 4.08 G/DL | ALKALINE PHOSPHATASE [2]: 355.5 u/L | ASPARTATE AMINOTRANSFERASE [2]: 87.67 u/L | BLOOD UREA NITROGEN [2]: 15.33 mg/dL | CARBON DIOXIDE [2]: 33.83 mmol/L | CHLORIDE [2]: 99.67 MEQ/L | CHOLESTEROL [2]: 72.17 mg/dL | CREATINE PHOSPHOKINASE [2]: 268.33 u/L | CREATININE [2]: 0.15 mg/dL | GLUCOSE [2]: 152.5 mg/dL | LACTATE DEHYDROGENASE [2]: 212.67 u/L | LIPASE [2]: 10.83 u/L | PHOSPHORUS [2]: 11.65 mg/dL | POTASSIUM [2]: 6.73 MEQ/L | SODIUM [2]: 142.43 MEQ/L | TOTAL BILIRUBIN [2]: 0.23 mg/dL | TOTAL PROTEIN [2]: 6.07 G/DL | URIC ACID [2]: 1.7 mg/dL | ABSOLUTE BASOPHIL [3]: 0 CELLS/uL | ABSOLUTE EOSINOPHIL [3]: 0 CELLS/uL | ABSOLUTE LYMPHOCYTE [3]: 15455.33 CELLS/uL | ABSOLUTE MONOCYTE [3]: 295 CELLS/uL | ABSOLUTE SEGMENTED NEUTROPHIL [3]: 1116.33 CELLS/uL | BASOPHIL [3]: 0% | EOSINOPHIL [3]: 0% | ERYTHROCYTE COUNT [3]: 5.86 x10E6/uL | HEMATOCRIT [3]: 37.3% | HEMOGLOBIN [3]: 14.83 G/DL | LEUKOCYTE COUNT [3]: 16.87 x10E3/uL | LYMPHOCYTE [3]: 91.67% | MEAN CORPUSCULAR HEMOGLOBIN [3]: 25.33 pg | MEAN CORPUSCULAR HEMOGLOBIN CONCENTRATION [3]: 39.77 G/DL | MEAN CORPUSCULAR VOLUME [3]: 63.67 fL | MONOCYTE [3]: 1.67% | NEUTROPHIL [3]: 6.67% | NUCLEATED RED BLOOD CELLS [3]: 0 /100WBC | PLATELET COUNT [3]: 1367.67 x10E3/uL | ALANINE AMINOTRANSFERASE [3]: 54.67 u/L | ALBUMIN [3]: 4.17 G/DL | ALKALINE PHOSPHATASE [3]: 303 u/L | ASPARTATE AMINOTRANSFERASE [3]: 88.33 u/L | BLOOD UREA NITROGEN [3]: 12 mg/dL | CARBON DIOXIDE [3]: 32.67 mmol/L | CHLORIDE [3]: 101.67 MEQ/L | CHOLESTEROL [3]: 70.67 mg/dL | CREATINE PHOSPHOKINASE [3]: 534 u/L | CREATININE [3]: 0.2 mg/dL | GLUCOSE [3]: 151 mg/dL | LACTATE DEHYDROGENASE [3]: 218 u/L | LIPASE [3]: 13.67 u/L | PHOSPHORUS [3]: 12.87 mg/dL | POTASSIUM [3]: 6.77 MEQ/L | SODIUM [3]: 145.17 MEQ/L | TOTAL BILIRUBIN [3]: 0.17 mg/dL | TOTAL PROTEIN [3]: 5.9 G/DL | URIC ACID [3]: 1.7 mg/dL
